Earlier results as cited in US12226530B2, “Lenalidomide gastro-retentive sustained-release tablet and preparation method thereof” (DiQi Pharmaceuticals Co., Ltd., priority 2018, dated 2025).
Read-outs that look alike come from different tables or passages of the source.

Assays:
[1] = not given; remark: listed apart in the source

Solubility (hydrochloric acid buffer with a pH of 1.2): about 18 mg/ml
Solubility (pH of solution medium greater than 4.6): lower than 0.6 mg/ml
Change of concentration ([1]; solvent pH 1.2, 6 hours): unchanged
Decrease of concentration ([1]; solvent pH 4.5, 6 hours): 6%
Decrease of concentration ([1]; solvent pH 6.8, 6 hours): 16%
Compound: Nc1cccc2c1CN(C1CCC(=O)NC1=O)C2=O (centres unmarked) [lenalidomide]
